IC50 data for 16 compounds are collected here from ChEMBL document CHEMBL2069285, “Synthesis of N-(1-methyl-1H-indol-3-yl)methyleneamines and 3,3-diaryl-4-(1-methyl-1H-indol-3-yl)azetidin-2-ones as potential antileishmanial agents” (Bioorg Med Chem Lett, 2012).

Broadly, the IC50 is the concentration that gives 50% inhibition.

≈ marks a conversion by molar mass, not a printed value.

This assay relates to Leishmania major. Nature of the assay: Antileishmanial activity against promastigotes of Leishmania major after 72 hrs by neubauer counting chamber analysis. The assay is classed as functional, organism-based.
Compound `Cc1ccc(/N=C/c2cn(C)c3ccccc23)cc1` registered an IC50 of 0.66 µg/mL (≈ 2.66 µM).

As for `Cn1cc(C2N(c3ccc(Cl)cc3)C(=O)C2(c2ccccc2)c2ccccc2)c2ccccc21` (stereo unspecified), the midpoint of inhibition, the IC50, lay at 0.76 µg/mL (≈ 1.64 µM).

For `Cc1ccc(N2C(=O)C(c3ccccc3)(c3ccccc3)C2c2cn(C)c3ccccc23)cc1` (stereo unspecified), the IC50 is 0.59 µg/mL (≈ 1.33 µM).

In turn, `CCOc1ccc(/N=C/c2cn(C)c3ccccc23)cc1` showed an IC50 of 0.88 µg/mL (≈ 3.16 µM).

`Cc1ccc(C2(c3ccc(C)cc3)C(=O)N(c3ccc(Cl)cc3)C2c2cn(C)c3ccccc23)cc1` (stereo unspecified) yielded a half-inhibitory concentration (IC50) of 0.57 µg/mL (≈ 1.16 µM).

Regarding `Cc1ccc(C2(c3ccc(C)cc3)C(=O)N(c3ccccc3)C2c2cn(C)c3ccccc23)cc1` (stereo unspecified), half-maximal inhibition (IC50) was put at 0.56 µg/mL (≈ 1.23 µM).

Take `Cn1cc(/C=N/c2ccc(Cl)cc2)c2ccccc21`: half-maximal inhibition (IC50) was put at 0.58 µg/mL (≈ 2.16 µM).

Turning to `Cn1cc(C2N(c3ccccc3)C(=O)C2(c2ccccc2)c2ccccc2)c2ccccc21` (stereo unspecified), the midpoint of inhibition, the IC50, lay at 0.6 µg/mL (≈ 1.4 µM).

Consider `CCOc1ccc(N2C(=O)C(c3ccccc3)(c3ccccc3)C2c2cn(C)c3ccccc23)cc1` (stereo unspecified), for which 0.56 µg/mL (≈ 1.18 µM) corresponded to half-maximal inhibition (IC50).

For the compound `Cc1ccc(N2C(=O)C(c3ccc(C)cc3)(c3ccc(C)cc3)C2c2cn(C)c3ccccc23)cc1` (stereo unspecified), 0.6 µg/mL (≈ 1.27 µM) corresponded to half-maximal inhibition (IC50).

In turn, `CCOc1ccc(N2C(=O)C(c3ccc(C)cc3)(c3ccc(C)cc3)C2c2cn(C)c3ccccc23)cc1` (stereo unspecified) gave an IC50 of 0.63 µg/mL (≈ 1.26 µM).

Consider `COc1ccc(/N=C/c2cn(C)c3ccccc23)cc1`, for which the IC50 came out at 0.92 µg/mL (≈ 3.48 µM).

`Cc1ccccc1/N=C/c1cn(C)c2ccccc12` yielded an IC50 of 0.57 µg/mL (≈ 2.3 µM).

In the case of `Cn1cc(/C=N/c2ccccc2)c2ccccc21`, the IC50 amounted to 0.76 µg/mL (≈ 3.24 µM).

In the case of `Cn1cc(/C=N/C(c2ccccc2)c2ccccc2)c2ccccc21`, it took 0.6 µg/mL (≈ 1.85 µM) to reach half-maximal inhibition (IC50).

The compound `Cn1cc(/C=N/Cc2ccccc2)c2ccccc21` displayed an IC50 of 0.71 µg/mL (≈ 2.86 µM).
